Data taken from patent US20230285435A1, “COMPOSITIONS AND METHODS FOR TREATING VIRAL INFECTIONS” (priority 2020, published 2023).
Counter-ions that a name gives are not always drawn.

Key:
[1] = system: SARS-CoV2 infected Vero-E6 cells and human lung epithelial cells (Calu-3); assay type: cell-based; parameters: inhibiting cytopathic effect (% of cells): dose or concentration left out as unconfirmed; settings: for synergy with remdesivir (BLISS independence model, synergyfinder): in combination with remdesivir, synergy score >10 signifies synergy; for efficacy of the agent alone, in words: single agent
[2] = system: SARS-CoV2 in Calu-3 cells; assay type: cell-based

Compound | synergy in combination with remdesivir [2] | further results
Elbasvir | – | synergy with remdesivir (BLISS independence model, synergyfinder) [1]: synergistic
COC(=O)N[C@H](C(=O)N1CC2(CC2)C[C@H]1c1ncc(-c2ccc3c(c2)C(F)(F)c2cc(-c4ccc5nc(C6[C@H]7CC[C@H](C7)N6C(=O)[C@@H](NC(=O)OC)C(C)C)[nH]c5c4)ccc2-3)[nH]1)C(C)C (stereo partly drawn) [Ledipasvir acetone] | synergy | –
COC(=O)N[C@H](C(=O)N1CCC[C@H]1C(=O)Nc1ccc([C@@H]2CC[C@@H](c3ccc(NC(=O)[C@@H]4CCCN4C(=O)[C@@H](NC(=O)OC)C(C)C)cc3)N2c2ccc(C(C)(C)C)cc2)cc1)C(C)C [Ombitasvir] | synergy | –
COC[C@H]1C[C@@H](c2nc(-c3ccc4c(c3)COc3cc5c(ccc6nc([C@@H]7CC[C@H](C)N7C(=O)[C@@H](NC(=O)OC)C(C)C)[nH]c65)cc3-4)c[nH]2)N(C(=O)[C@H](NC(=O)OC)c2ccccc2)C1 [Velpatasvir] | – | synergy with remdesivir (BLISS independence model, synergyfinder) [1]: strongest; efficacy of the agent alone, in words [1]: modest efficacy; inhibiting cytopathic effect (% of cells) ([1]; velpatasvir alone (so in the source)): 16%
COc1c(C)c2c(c(O)c1C/C=C(\C)CCC(=O)O)C(=O)OC2 [Mycophenolic acid] | synergy | –
COC(=O)N[C@H](C(=O)N1CC2(CC2)C[C@H]1c1ncc(-c2ccc3c(c2)C(F)(F)c2cc(-c4ccc5nc([C@@H]6[C@H]7CC[C@H](C7)N6C(=O)[C@@H](NC(=O)OC)C(C)C)[nH]c5c4)ccc2-3)[nH]1)C(C)C [Ledipasvir] | synergy | –
CCC(CC)COC(=O)[C@H](C)N[P@](=O)(OC[C@H]1O[C@@](C#N)(c2ccc3c(N)ncnn23)[C@H](O)[C@@H]1O)Oc1ccccc1 [remdesivir] | – | preventing a virus-caused pathology (% of cells) ([1]; 300 nM remdesivir alone): 7%; efficacy of the agent alone, in words [1]: only active at high uM concentrations
COC(=O)N[C@H](C(=O)N1CCC[C@H]1c1ncc(-c2ccc(-c3ccc(-c4cnc([C@@H]5CCCN5C(=O)[C@@H](NC(=O)OC)C(C)C)[nH]4)cc3)cc2)[nH]1)C(C)C [Daclatasvir dihydrochloride] | synergy | –
COC(=O)N[C@H](C(=O)N1CCC[C@H]1c1nc2cc([C@H]3CC[C@H](c4cc5nc([C@@H]6CCCN6C(=O)[C@@H](NC(=O)OC)[C@@H](C)OC)[nH]c5cc4F)N3c3cc(F)c(N4CCC(c5ccc(F)cc5)CC4)c(F)c3)c(F)cc2[nH]1)[C@@H](C)OC [Pibrentasvir] | synergy | –
